This is an account of results in publication PMC2528936, “Snake Cathelicidin from Bungarus fasciatus Is a Potent Peptide Antibiotics” (PLoS ONE, 2008).

For assay [1], the system named is Staphylococcus aureus ATCC2592. The assay can be described thus: microbe, parasite or virus in culture. Particulars: ATCC2592. Here is the method:
(§1) Antimicrobial activities of cathelicidin-BF and cathelicidin-BF15 ([…]) were tested according to our previous methods [39]–[42]. […] The details were provided in the Materials and Methods S1.
(§2) Standard and clinically isolated microorganism strains were used for antimicrobial assays. Bacteria were first grown in LB (Luria-Bertani) broth to an OD600 nm of 0.8. A 10 µl aliquot of the bacteria was then taken and added to 8 ml of fresh LB broth with 0.7% agar and poured over a 90 mm Petri dish containing 25 ml of 1.5% agar in LB broth. After the top agar hardened, a 20 µl aliquot of the test sample filtered on a 0.22 µm Millipore filter was dropped onto the surface of the top agar and completely dried before being incubated overnight at 37 °C. If the sample examined had antimicrobial activity, a clear zone would be formed on the surface of the top agar representing inhibition of bacterial growth. Minimal inhibitory concentration (MIC) was determined in liquid LB medium by incubating the bacteria in LB broth with variable amounts of the sample tested. The MIC at which no visible growth occurred was recorded. In the assays of anti-fungi activity, for strains of Aspergillus terreus, A. niculans, and Chaetomium globosum, the fungal spore concentration was first counted under a microscope. The fungi with an initial concentration of 10^5 spores/ml were cultured with variable amounts of the sample tested in yeast extract-peptone-dextrose broth.

Assay [2] relates to Pseudomonas aeruginosa ATCC27853. The assay can be described thus: microbe, parasite or virus in culture. Particulars: ATCC27853. Here is the method:
as §1, §2

Assay [3] concerns Bacillus subtilis. The assay can be described thus: microbe, parasite or virus in culture. Here is the method: as §1, §2
Assay [4] has as its system Candida albicans ATCC2002. The assay can be described thus: microbe, parasite or virus in culture. Here is the method: as §1, §2
For assay [5], the system named is Escherichia coliATCC25922. The assay can be described thus: microbe, parasite or virus in culture. Here is the method:
as §1, §2

Assay [6] deals with E. coli 08A866(IS, DR). Particulars: clinically isolated strain, drug resistance for ampicillin and benzylpenicillin; liquid LB broth; mean of three independent experiments in duplicates; ND = no detectable activity. Here is the method:
as §1, §2

The test system of assay [7] is E. coli 08A866. Format: cell-based, Escherichia coli. Particulars: for Amount of bacteria co-cultured with sample: Table 4, LB, 35 °C. Here is the method: The details were provided in the Materials and Methods S1.
Fresh overnight colonies were added to a total of 20 ml LB, and incubated on a 35 °C water bath. After one hour of incubation, 1 ml broth from each flask was replaced with the test solution. The colony counting was performed at different time after addition of the test solutions as described by Mygind et al.

In assay [8] the test system is K. pneumoniae standard strain. The assay can be described thus: MIC determination, standard strain. Particulars: Klebsiella pneumoniae. Format: cell-based. Here is the method:
as §1
as §2, with “The fungi with an initial concentration of 10^5 spores/ml were cultured with variable amounts of the sample tested in yeast extract-peptone-dextrose broth.” left out

The test system of assay [9] is Acinetobacter calcoaceticus. The assay can be described thus: microbe, parasite or virus in culture. Particulars: Acinetobacter calcoaceticus. Here is the method: as §1, §2
Assay [10] deals with Bacillus cereus. The assay can be described thus: microbe, parasite or virus in culture. Particulars: Bacillus cereus. Here is the method:
as §1, §2

Assay [11] has as its system Bacillus pumilus. The assay can be described thus: microbe, parasite or virus in culture. Particulars: Bacillus pumilus. Here is the method: as §1, §2
The test system of assay [12] is Aspergillus niculans. Particulars: saprophytic fungus; 10^5 spores/ml, yeast extract-peptone-dextrose broth; mean of three independent experiments in duplicates; ND = no detectable activity. Here is the method:
as §1, §2

The subject of assay [13] is Chaetomium globosum. Particulars: saprophytic fungus; 10^5 spores/ml, yeast extract-peptone-dextrose broth; mean of three independent experiments in duplicates; ND = no detectable activity. Here is the method:
as §1, §2

For assay [14], the system named is Aspergillus terreus GIM3.34. Particulars: saprophytic fungus; 10^5 spores/ml, yeast extract-peptone-dextrose broth; mean of three independent experiments in duplicates; ND = no detectable activity. Here is the method:
as §1, §2

Structures are written as SMILES. Converted amounts (≈) assume the structure as drawn. Like-named read-outs stand apart in the source and are kept apart here. Where a SMILES comes first, the peptide text is derived from it. Bridges are numbered along the chain shown (N, C = ends).

In the case of `CC[C@H](C)[C@H](NC(=O)[C@H](C)NC(=O)[C@@H](NC(=O)[C@@H]1CCCN1C(=O)[C@H](CC(C)C)NC(=O)[C@@H](NC(=O)[C@H](CO)NC(=O)[C@@H](NC(=O)[C@H](C)NC(=O)[C@@H](NC(=O)[C@H](CCCCN)NC(=O)[C@H](CC(C)C)NC(=O)[C@@H](NC(=O)[C@@H]1CCCN1C(=O)CNC(=O)[C@@H](NC(=O)[C@@H](N)Cc1ccccc1)[C@@H](C)CC)C(C)C)[C@@H](C)CC)[C@@H](C)O)[C@@H](C)CC)[C@@H](C)O)C(=O)N[C@H]1CSSC[C@@H](C(=O)O)NC(=O)[C@H](CCCCN)NC(=O)[C@H](CCCCN)NC(=O)[C@H](Cc2ccccc2)NC(=O)[C@H]([C@@H](C)CC)NC(=O)[C@H](CCCCN)NC1=O` [HDW] (H-FIGPVLKIATSILPTAICKIFKKC-OH; disulfide 18-24 (inferred); N-terminus and C-terminus assumed), the MIC came out at 1.2 µg/mL (≈ 0.461 µM) in assay [1]; 37.5 µg/mL (≈ 14.4 µM) in [2]; 2.3 µg/mL (≈ 0.883 µM) in assay [3]; 2.3 µg/mL (≈ 0.883 µM) in assay [4]; 18.7 µg/mL (≈ 7.18 µM) in [5] (ATCC25922); 18.7 µg/mL (≈ 7.18 µM) in assay [6]. For the same molecule, the “Amount of bacteria co-cultured with sample” value in assay [7] (sample at 1 times MIC, time 0.1 min) is 49 CFU; in assay [7] (sample at 1 times MIC, time 1 min) it was 14.7 CFU; in [7] (sample at 1 times MIC, time 10 min), 0 CFU; in [7] (sample at 1 times MIC, time 30 min) it was 0 CFU; in assay [7] (sample at 10 times MIC, time 0.1 min), 38 CFU; in assay [7] (sample at 10 times MIC, time 1 min), 3.7 CFU. The “Amount of bacteria co-cultured with sample” value in assay [7] (sample at 10 times MIC, time 10 min) is recorded as 0 CFU; in [7] (sample at 10 times MIC, time 30 min) it was 0 CFU. Besides, the “time to clean E. coli” value in assay [7] (killing kinetics during 30 min (Table 4), comparison of cathelicidin-BF and HDW) was “several minutes”.

As for `CC1(C)S[C@@H]2[C@H](NC(=O)[C@H](N)c3ccccc3)C(=O)N2[C@H]1C(=O)O` [ampicillin], the MIC in assay [8] is 150 µg/mL (≈ 429 µM); in assay [1] (Staphylococcus aureus), 0.15 µg/mL (≈ 0.429 µM); in assay [9], 75 µg/mL (≈ 215 µM); in assay [10], 150 µg/mL (≈ 429 µM); in [2] (Pseudomonas aeruginosa), 150 µg/mL (≈ 429 µM); in assay [3] (Bacillus subtilis), 0.02 µg/mL (≈ 0.0572 µM). For the same molecule, the MIC is 0.3 µg/mL (≈ 0.859 µM) in assay [4] (Candida albicans); 18.7 µg/mL (≈ 53.5 µM) in assay [5] (Escherichia, COLIATCC25922); 0.15 µg/mL (≈ 0.429 µM) in assay [11]; “no effect” in assay [12]; “no effect” in assay [13]; “no effect” in assay [14].

On to `CC1(C)S[C@@H]2[C@H](NC(=O)Cc3ccccc3)C(=O)N2[C@H]1C(=O)O` [benzylpenicillin], for which the MIC in assay [8] is 18.7 µg/mL (≈ 55.9 µM); in assay [1] (Staphylococcus aureus), 0.03 µg/mL (≈ 0.0897 µM); in [9], 37.5 µg/mL (≈ 112 µM); in [10], 150 µg/mL (≈ 449 µM); in assay [2] (Pseudomonas aeruginosa) it was 18.7 µg/mL (≈ 55.9 µM); in [3] (Bacillus subtilis) it was 0.004 µg/mL (≈ 0.012 µM). Moreover, the MIC in [4] (Candida albicans) was 0.03 µg/mL (≈ 0.0897 µM); in assay [5] (Escherichia, COLIATCC25922) it was 37.5 µg/mL (≈ 112 µM); in assay [11], 0.015 µg/mL (≈ 0.0449 µM); in assay [12], “no effect”; in [13], “no effect”; in assay [14] it was “no effect”.
